Patent EP0169405A2, “Use of substituted pyrimido (5,4-d) pyrimidines” (BOEHRINGER INGELHEIM KG, priority 1984, dated 1986)
Read-outs that look alike come from different tables or passages of the source.

Legend:
[1] = tested on: Störung des Kurzzeitgedächtnisses; test: Reversal of scopolamine-induced disturbance of short-term memory; assay type: in vivo; conditions: po; scopolamine-induced memory disturbance is reversed; read-out: niedrigste wirksame Dosis (wirksam ab)
From the text: In der Formel I bedeutet • ^R1 einen Cl-C3-Alkoxy-(C2-C3-alkyl)rest, • ^R2 einen C2-C6-Hydroxyalkylrest oder einen C3-Dihydroxy- alkylrest, • ^R3 einen C1-C3-Alkoxy-(C2-C3-alkyl) rest oder einen C2-C3-Hydroxyalkylrest, • R4 einen Dialkylaminorest, wobei jeder Alkylrest 1 bis 6 C-Atome enthalten kann, die Diallyl- oder Di-(methoxyethyl)-aminogruppe oder einen gegebenenfalls durch eine Methylgruppe substituierten Pyrrolidino-, Piperidino-, Hexamethylenamino-, 1', 2', 5', 6'-Tetrahydropyridino-, Morpholino-, Thiomorpholino- oder 1-Oxidothiomorpholinoring. Die Verbindungen können als freie Basen oder als physiologisch verträgliche Säureadditionssalze mit anorganischen oder organischen Säuren vorliegen. Es wurde nun in tierexperimentellen Untersuchungen gefunden, daß die Verbindungen überraschenderweise besonders zur Beeinflussung eingeschränkter zerebraler Leistungsfähigkeit geeignet sind. Die folgenden Ergebnisse stützen diese Aussage: • 1. Durch gabe des muskarinen cholinergen Antagonisten Scopolamin wird eine Störung des Kurzzeitgedächtnisses bzw. des Übergangs von Inhalten des Kurzzeit- in das sogenannte Langzeitgedächnis erzeugt. Diese Einschränkung wird durch die neuen Verbindungen aufgehoben. […]

[2] = Acute toxicity in the mouse (LD50); conditions: in vivo

SMILES | minimal effective dose [1] [mg/kg] | LD50 ([2]; iv, read-out: i.v. LD50) [mg/kg] | LD50 ([2]; po, read-out: p.o. LD50) [mg/kg]
NC(=O)CN1CCCC1=O [Piracetam] | 150 | – | –
CCN(CC)c1nc(N(CCO)CCOC)nc2c(N(CC)CC)nc(N(CCO)CCOC)nc12 [Verbindung (B)] | – | 133 | > 3000
COc1ccc(C(=O)N2CCCC2=O)cc1 [Aniracetam] | 50 | – | –
